# Data: ChEMBL document CHEMBL1147459, “Thienopyridine and benzofuran derivatives as potent anti-tumor agents possessing different structure-activity relationships” (Bioorg Med Chem Lett, 2004)
# Tested on: WI-38 VA13
# Assay: Effective concentration required to cause cytotoxicity to tumorigenic cell line WI-38 VA-13 subline 2RA
# Assay type: functional, cell-based
# Conditions: Homo sapiens
row,SMILES,EC50
1,Nc1c(C(=O)c2ccc(Br)cc2)sc2nc(-c3cccs3)ccc12,2.8 µg/mL
2,Nc1c(C(=O)c2ccc(F)c(F)c2)sc2nc(-c3cccs3)ccc12,> 4 µg/mL
3,CCOC(=O)c1sc2nc(-c3cccs3)ccc2c1N,> 4 µg/mL
4,CC(=O)c1sc2nc(-c3cccs3)ccc2c1N,2.7 µg/mL
5,COc1ccc(C(=O)c2sc3nc(-c4cccs4)ccc3c2N)cc1,0.77 µg/mL
6,Nc1c(C(=O)c2cccc(Br)c2)sc2nc(-c3cccs3)ccc12,0.5 µg/mL
7,COc1ccccc1C(=O)c1sc2nc(-c3cccs3)ccc2c1N,0.059 µg/mL
8,Nc1c(C(=O)c2ccc(F)cc2)sc2nc(-c3cccs3)ccc12,1.8 µg/mL
9,CN(C)c1c(C(=O)c2ccccc2)sc2nc(-c3cccs3)ccc12,> 4 µg/mL
10,Nc1c(C(=O)c2ccccc2)sc2nc(-c3cccs3)ccc12,0.09 µg/mL
11,Nc1c(C(=O)c2cccc(F)c2)sc2nc(-c3cccs3)ccc12,0.025 µg/mL
12,COc1cccc(C(=O)c2sc3nc(-c4cccs4)ccc3c2N)c1,0.03 µg/mL
13,COc1ccc(C(=O)c2sc3nc(-c4cccs4)ccc3c2N)c(OC)c1,0.52 µg/mL
14,Nc1c(C(=O)c2cccc([N+](=O)[O-])c2)sc2nc(-c3cccs3)ccc12,0.15 µg/mL
15,COc1ccc(OC)c(C(=O)c2sc3nc(-c4cccs4)ccc3c2N)c1,0.079 µg/mL
16,CNc1c(C(=O)c2ccccc2)sc2nc(-c3cccs3)ccc12,0.42 µg/mL
17,Nc1c(C(=O)c2ccc(F)cc2F)sc2nc(-c3cccs3)ccc12,2.3 µg/mL
18,CCC(=O)c1sc2nc(-c3cccs3)ccc2c1N,0.89 µg/mL
19,CCOC(=O)c1oc2cc(-c3ccccc3)cc(OC)c2c1C,> 4 µg/mL
20,CC(C)(C)C(=O)c1sc2nc(-c3cccs3)ccc2c1N,0.57 µg/mL
